The values that follow are results of earlier work, collected in patent US20090202626A1, “TREATMENT OF BLADDER DISEASES WITH A TLR7 ACTIVATOR” (priority 2008, published 2009).

Series [1] concerns orthotopic bladder cancer.
The next series concerns superficial skin cancer. To be noted: in vivo.

For `CC(C)Cn1cnc2c(N)nc3ccccc3c21` [Imiquimod, imiquimod], in series [1] (100 μg once weekly, placebo 11 of 13 mice (85%)), the “mice that developed tumors” value is 3 of 14. The anti-tumor activity entry in series [1] (orthotopic bladder cancer mouse model) is given as “potent anti-tumor activity”. Moreover, the “effect on FCB bladder tumor” value in the series on FCB bladder tumor (mice) is reported as “cured mice”. Also, the “effect on chemically induced bladder cancer” value with FCB bladder tumor (mouse, in vivo) is “inhibited”. In addition, the “efficacy in superficial skin cancer” value in the series on superficial skin cancer is given as “demonstrated efficacy”.
